Assay results from ChEMBL document CHEMBL4828738, “Design, synthesis and evaluation of novel 5-phenylthiophene derivatives as potent fungicidal of Candida albicans and antifungal reagents of fluconazole-resistant fungi” (Eur J Med Chem, 2021).
≈ marks a conversion by molar mass, not a printed value.

Columns and labels:
[1] = tested on: Candida albicans; experiment: Antifungal activity against fluconazole-resistant Candida albicans 103 assessed as fungal growth inhibition by CLSI protocol based method
[2] = tested on: Candida parapsilosis; experiment: Antifungal activity against Candida parapsilosis GIM2.190 assessed as fungal growth inhibition by CLSI protocol based method; assay type: functional; details: Lodderomyces parapsilosis
[3] = tested on: Candida albicans; experiment: Antifungal activity against Candida albicans ATCC SC5314 assessed as fungal growth inhibition by CLSI protocol based method; assay type: functional
[4] = tested on: Candida albicans; experiment: Antifungal activity against fluconazole-resistant Candida albicans 311 assessed as fungal growth inhibition by CLSI protocol based method
[5] = tested on: Candida albicans; experiment: Antifungal activity against fluconazole-resistant Candida albicans 904 assessed as fungal growth inhibition by CLSI protocol based method
[6] = tested on: Candida tropicalis; experiment: Antifungal activity against Candida tropicalis CGMCC 2.3739 assessed as fungal growth inhibition by CLSI protocol based method; assay type: functional
[7] = tested on: Pichia kudriavzevii; experiment: Antifungal activity against Candida krusei GIM2.1 assessed as fungal growth inhibition by CLSI protocol based method; assay type: functional
[8] = tested on: Candida albicans; experiment: Antifungal activity against fluconazole-resistant Candida albicans 901 assessed as fungal growth inhibition by CLSI protocol based method
[9] = tested on: Nakaseomyces glabratus; experiment: Antifungal activity against Candida glabrata assessed as fungal growth inhibition by CLSI protocol based method; assay type: functional
[10] = tested on: Cryptococcus neoformans; experiment: Antifungal activity against Cryptococcus neoformans CGMCC2.3161 assessed as fungal growth inhibition by CLSI protocol based method; assay type: functional
[11] = tested on: Candida albicans; experiment: Antifungal activity against Candida albicans CPCC400616 assessed as fungal growth inhibition by CLSI protocol based method; assay type: functional
[12] = tested on: Candida albicans; experiment: Antifungal activity against fluconazole-resistant Candida albicans 632 assessed as fungal growth inhibition by CLSI protocol based method
[13] = tested on: Candida albicans; experiment: Antifungal activity against fluconazole-resistant Candida albicans 100 assessed as fungal growth inhibition by CLSI protocol based method

With `COc1ccc(C(=O)C(Cn2ccnc2)NC(=O)c2ccc(-c3ccc(Cl)cc3)s2)cc1` (configuration not stated) the MIC [1] was 8 mg/L (≈ 17.2 µM), the MIC [2] was > 64 mg/L and the MIC [3] was < 0.03 mg/L. For the same molecule, the MIC [4] was 4 mg/L (≈ 8.58 µM), the MIC [5] was 16 mg/L (≈ 34.3 µM) and the MIC [6] was 0.06 mg/L (≈ 0.129 µM). For the same molecule, the MIC [7] was 8 mg/L (≈ 17.2 µM), the MIC [8] was 8 mg/L (≈ 17.2 µM) and the MIC [9] was 4 mg/L (≈ 8.58 µM). The MIC [10] was > 64 mg/L, the MIC [11] was 0.125 mg/L (≈ 0.268 µM) and the MIC [12] was 8 mg/L (≈ 17.2 µM). It also gave an MIC [13] of 4 mg/L (≈ 8.58 µM).
For `O=C(NC(Cn1ccnc1)C(=O)c1ccccc1)c1cnc(-c2ccccc2)o1` (configuration not stated), the MIC [2] was > 64 mg/L, the MIC [3] was 32 mg/L (≈ 82.8 µM) and the MIC [6] was > 64 mg/L. For the same molecule, the MIC [7] was > 64 mg/L, the MIC [9] was > 64 mg/L and the MIC [10] was > 64 mg/L. It also gave an MIC [11] of 64 mg/L (≈ 166 µM).
`O=C(NC(Cn1ccnc1)C(=O)c1ccc(F)cc1)c1ccc(-c2ccc(Cl)cc2)s1` (configuration not stated) was tested, and the MIC [1] was 8 mg/L (≈ 17.6 µM), the MIC [2] was > 64 mg/L and the MIC [3] was 0.06 mg/L (≈ 0.132 µM). For the same molecule, the MIC [4] was 4 mg/L (≈ 8.81 µM), the MIC [5] was 16 mg/L (≈ 35.2 µM) and the MIC [6] was 2 mg/L (≈ 4.41 µM). The MIC [7] was > 64 mg/L, the MIC [8] was 8 mg/L (≈ 17.6 µM) and the MIC [9] was 1 mg/L (≈ 2.2 µM). The MIC [10] was > 64 mg/L, the MIC [11] was 0.25 mg/L (≈ 0.551 µM) and the MIC [12] was 4 mg/L (≈ 8.81 µM). The MIC [13] was 4 mg/L (≈ 8.81 µM).
For `O=C(NC(Cn1ccnc1)C(=O)c1ccccc1)c1ccc(-c2ccccc2Cl)s1` (configuration not stated), the MIC [2] was > 64 mg/L, the MIC [3] was > 64 mg/L and the MIC [6] was > 64 mg/L. The MIC [7] was > 64 mg/L, the MIC [9] was > 64 mg/L and the MIC [10] was > 64 mg/L. The MIC [11] was > 64 mg/L.
For `O=C(NC(Cn1ccnc1)C(=O)c1ccccc1)c1ccc(-c2cccc(F)c2)s1` (configuration not stated), the MIC [2] was > 64 mg/L, the MIC [3] was 8 mg/L (≈ 19.1 µM) and the MIC [6] was > 64 mg/L. The MIC [7] was > 64 mg/L, the MIC [9] was > 64 mg/L and the MIC [10] was > 64 mg/L. It also gave an MIC [11] of 64 mg/L (≈ 153 µM).
Molecule `O=C(NC(Cn1ccnc1)C(=O)c1ccccc1)c1noc2c1CCc1ccccc1-2` (configuration not stated) has an MIC [2] of 32 mg/L (≈ 77.6 µM), an MIC [3] of 8 mg/L (≈ 19.4 µM) and an MIC [6] of 4 mg/L (≈ 9.7 µM). For the same molecule, the MIC [7] was > 64 mg/L, the MIC [9] was 16 mg/L (≈ 38.8 µM) and the MIC [10] was 16 mg/L (≈ 38.8 µM). For the same molecule, the MIC [11] was 8 mg/L (≈ 19.4 µM).
In the case of `O=C(NC(Cn1ccnc1)C(=O)c1ccccc1)c1ccc2ccccc2c1` (configuration not stated), the MIC [2] is reported as > 64 mg/L, the MIC [3] is reported as 0.5 mg/L (≈ 1.35 µM) and the MIC [6] is reported as 0.5 mg/L (≈ 1.35 µM). The MIC [7] was > 64 mg/L, the MIC [9] was > 64 mg/L and the MIC [10] was 32 mg/L (≈ 86.6 µM). The MIC [11] was 2 mg/L (≈ 5.41 µM).
With `O=C(NC(Cn1ccnc1)C(=O)c1ccccc1)c1ccc(-c2ccccc2)s1` (configuration not stated) the MIC [1] was 4 mg/L (≈ 9.96 µM), the MIC [2] was 0.5 mg/L (≈ 1.25 µM) and the MIC [3] was 0.5 mg/L (≈ 1.25 µM). The MIC [4] was 8 mg/L (≈ 19.9 µM), the MIC [5] was 4 mg/L (≈ 9.96 µM) and the MIC [6] was 1 mg/L (≈ 2.49 µM). It also gave an MIC [7] of 32 mg/L (≈ 79.7 µM), an MIC [8] of 4 mg/L (≈ 9.96 µM) and an MIC [9] of 2 mg/L (≈ 4.98 µM). It also gave an MIC [10] of 8 mg/L (≈ 19.9 µM), an MIC [11] of 0.5 mg/L (≈ 1.25 µM) and an MIC [12] of 8 mg/L (≈ 19.9 µM). For the same molecule, the MIC [13] was 4 mg/L (≈ 9.96 µM).
`O=C(NC(Cn1ccnc1)C(=O)c1ccccc1)c1ccc(-c2ccc(Cl)cc2)s1` (configuration not stated) gave an MIC [1] of 4 mg/L (≈ 9.18 µM), an MIC [2] of 0.25 mg/L (≈ 0.573 µM) and an MIC [3] of 0.125 mg/L (≈ 0.287 µM). It also gave an MIC [4] of 2 mg/L (≈ 4.59 µM), an MIC [5] of 4 mg/L (≈ 9.18 µM) and an MIC [6] of 0.125 mg/L (≈ 0.287 µM). It also gave an MIC [7] of 4 mg/L (≈ 9.18 µM), an MIC [8] of 4 mg/L (≈ 9.18 µM) and an MIC [9] of 1 mg/L (≈ 2.29 µM). For the same molecule, the MIC [10] was > 64 mg/L, the MIC [11] was 0.125 mg/L (≈ 0.287 µM) and the MIC [12] was 4 mg/L (≈ 9.18 µM). The MIC [13] was 2 mg/L (≈ 4.59 µM).
`O=C(NC(Cn1ccnc1)C(=O)c1ccccc1)c1ccc(-c2cccc(Cl)c2)s1` (configuration not stated) was tested, and the MIC [2] was > 64 mg/L, the MIC [3] was 16 mg/L (≈ 36.7 µM) and the MIC [6] was 32 mg/L (≈ 73.4 µM). For the same molecule, the MIC [7] was > 64 mg/L, the MIC [9] was > 64 mg/L and the MIC [10] was > 64 mg/L. It also gave an MIC [11] of 32 mg/L (≈ 73.4 µM).
In the case of `O=C(NC(Cn1ccnc1)C(=O)c1ccccc1)c1ccc(-c2ccc(Cl)cc2Cl)s1` (configuration not stated), the MIC [2] is reported as > 64 mg/L, the MIC [3] is reported as > 64 mg/L and the MIC [6] is reported as > 64 mg/L. The MIC [7] was > 64 mg/L, the MIC [9] was > 64 mg/L and the MIC [10] was > 64 mg/L. The MIC [11] was > 64 mg/L.
In the case of `O=C(NC(Cn1ccnc1)C(=O)c1ccccc1)c1cc2ccccc2s1` (configuration not stated), the MIC [2] is reported as > 64 mg/L, the MIC [3] is reported as > 64 mg/L and the MIC [6] is reported as > 64 mg/L. The MIC [7] was > 64 mg/L, the MIC [9] was > 64 mg/L and the MIC [10] was > 64 mg/L. The MIC [11] was > 64 mg/L.
`O=C(NC(Cn1ccnc1)C(=O)c1ccccc1)c1ccc(-c2ccc(C(F)(F)F)cc2)s1` (configuration not stated) was tested, and the MIC [1] was 2 mg/L (≈ 4.26 µM), the MIC [2] was 4 mg/L (≈ 8.52 µM) and the MIC [3] was 0.125 mg/L (≈ 0.266 µM). It also gave an MIC [4] of 4 mg/L (≈ 8.52 µM), an MIC [5] of 2 mg/L (≈ 4.26 µM) and an MIC [6] of 0.125 mg/L (≈ 0.266 µM). For the same molecule, the MIC [7] was 16 mg/L (≈ 34.1 µM), the MIC [8] was 4 mg/L (≈ 8.52 µM) and the MIC [9] was 8 mg/L (≈ 17 µM). For the same molecule, the MIC [10] was > 64 mg/L, the MIC [11] was 2 mg/L (≈ 4.26 µM) and the MIC [12] was > 64 mg/L. For the same molecule, the MIC [13] was > 64 mg/L.
`COc1ccc(-c2ccc(C(=O)NC(Cn3ccnc3)C(=O)c3ccccc3)s2)cc1` (configuration not stated) was tested, and the MIC [1] was 4 mg/L (≈ 9.27 µM), the MIC [2] was > 64 mg/L and the MIC [3] was 0.125 mg/L (≈ 0.29 µM). The MIC [4] was 4 mg/L (≈ 9.27 µM), the MIC [5] was 4 mg/L (≈ 9.27 µM) and the MIC [6] was 2 mg/L (≈ 4.63 µM). For the same molecule, the MIC [7] was > 64 mg/L, the MIC [8] was 2 mg/L (≈ 4.63 µM) and the MIC [9] was > 64 mg/L. The MIC [10] was > 64 mg/L, the MIC [11] was 1 mg/L (≈ 2.32 µM) and the MIC [12] was 8 mg/L (≈ 18.5 µM). The MIC [13] was 2 mg/L (≈ 4.63 µM).
With `O=C(NC(Cn1ccnc1)C(=O)c1ccccc1F)c1ccc(-c2ccc(Cl)cc2)s1` (configuration not stated) the MIC [1] was 4 mg/L (≈ 8.81 µM), the MIC [2] was > 64 mg/L and the MIC [3] was 0.06 mg/L (≈ 0.132 µM). For the same molecule, the MIC [4] was 8 mg/L (≈ 17.6 µM), the MIC [5] was > 64 mg/L and the MIC [6] was > 64 mg/L. The MIC [7] was 1 mg/L (≈ 2.2 µM), the MIC [8] was 2 mg/L (≈ 4.41 µM) and the MIC [9] was > 64 mg/L. For the same molecule, the MIC [10] was 2 mg/L (≈ 4.41 µM), the MIC [11] was 0.06 mg/L (≈ 0.132 µM) and the MIC [12] was > 64 mg/L. The MIC [13] was > 64 mg/L.
